In patent US6476018B1, “Fused imidazole derivatives as multidrug resistance modulators” (Janssen Pharmaceutica N.V., priority 1996, dated 2002):

Test system: P388/ADR (adriamycine resistance cell line) murine leukemia
Assay: MDR in vivo test: reversal of adriamycine resistance in P388/ADR murine leukemia (survival)
Settings: P388/ADR mice, daily i.p. day 1-10
Description: Male B6D2F1 mice (18-21 g) were injected intraperitoneally with 1×10^5 P388/ADR cells at day 0. Daily intraperitoneal treatment with adriamycine, a test compound of formula (I) or a combination of both was installed from day 1 until day 10. Control animals received the vehicle (15% 4-OH-propyl-β-cyclodextrine in saline). Each group consisted of 8 animals. Adriamycine was dosed at a concentration of 1.25 mg/kg body weight, half the maximal tolerable dose of adriamycine in this treatment schedule. The test compound was dosed at 20, 10, 5, 2.5, 1.25 and 0.63 mg/kg either as single treatment or combined with adriamycine.
Survival of the animals was recorded each day and expressed as a percentage of the median survival in the treated groups compared to the median survival in the control group, the latter to be said to be 100%.
Table C-1 lists the effect of compound 6 and adriamycine on the survival of mice injected with P388/ADR leukemia.
doses of compound 6 and adriamycine are expressed as mg/kg body weight.
the column “Survival Days” give the median day of death after inoculation of 1×10^5 P388/ADR cells at day 0, with the minimum and maximum number of days shown in parantheses
column “% Change vs. ADR” give the difference in MST % of the different groups compared to the MST % in the adriamycine-monotherapy group.

Row | SMILES | Survival Days med (min-max) (compound 6 0 mg/kg, adriamycine 1.25 mg/kg) | Survival Days med (min-max) (compound 6 5 mg/kg, adriamycine 0 mg/kg) | MST % (compound 6 20 mg/kg, adriamycine 0 mg/kg, control = 100%) [oo]
1 | COc1cccc2c1C(=O)c1c(O)c3c(c(O)c1C2=O)C[C@@](O)(C(=O)CO)C[C@@H]3O[C@H]1C[C@H](N)[C@H](O)[C@H](C)O1 [Adriamycine, adriamycine, reference compound] | 13 (12-15) days |  | 
2 | COC(=O)c1cnc2n1CCc1ccccc1C2=C1CCN(CCc2ccc(OCc3ccc4ccccc4n3)cc2)CC1 [Compound 6, methyl 6,11-dihydro-11-[1-[2-[4-(2-quinolinylmethoxy)phenyl]ethyl]-4-piperidinylidene]-5H-imidazo[2,1-b][3]-benzazepine-3-carboxylate] |  | 11.5 (10-13) days | 1
